According to patent US12240862B2, “Inhibitors of peptidylarginine deiminases” (Gilead Sciences, Inc., priority 2020, dated 2025):
pIC50: −log10 of the molar value.

These compounds were tested against T1, human PAD4 (Homo sapiens, UniProt Q9UM07) (assay: In vitro PAD4 BAEE biochemical assay). Conditions: human PAD4, BAEE substrate; 5 nM PAD4, 2 mM calcium chloride, 3 mM BAEE; geometric mean of multiple experiments.
T1 construct: human PAD4 (NM_012387), A2P663, was PCR amplified; His-SUMO (N, cleaved yes); made in house; host or cells: E. coli BL21(DE3)
T1 sequence (Q9UM07 2-663): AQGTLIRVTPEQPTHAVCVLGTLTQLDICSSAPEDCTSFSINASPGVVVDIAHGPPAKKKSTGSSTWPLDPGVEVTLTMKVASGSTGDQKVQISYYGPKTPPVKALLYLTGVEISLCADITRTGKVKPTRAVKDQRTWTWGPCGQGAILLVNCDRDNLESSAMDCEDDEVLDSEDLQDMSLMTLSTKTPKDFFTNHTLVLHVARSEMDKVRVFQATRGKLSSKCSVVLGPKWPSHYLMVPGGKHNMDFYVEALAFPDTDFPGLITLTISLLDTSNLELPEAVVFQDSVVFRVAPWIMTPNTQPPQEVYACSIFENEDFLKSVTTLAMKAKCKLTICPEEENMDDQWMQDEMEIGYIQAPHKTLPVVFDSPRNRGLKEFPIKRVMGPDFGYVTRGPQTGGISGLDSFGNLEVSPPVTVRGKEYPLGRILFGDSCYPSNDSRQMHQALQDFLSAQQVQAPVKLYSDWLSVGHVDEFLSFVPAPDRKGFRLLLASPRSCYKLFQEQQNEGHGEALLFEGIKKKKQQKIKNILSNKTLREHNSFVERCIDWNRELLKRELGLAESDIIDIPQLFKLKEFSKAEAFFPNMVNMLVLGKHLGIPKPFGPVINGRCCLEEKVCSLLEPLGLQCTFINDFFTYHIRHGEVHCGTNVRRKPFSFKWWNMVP
Outline: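 Ammonia generated from BAEE serves as the readout, measured by o-phthalaldehyde after EDTA termination. Final conditions: 5 nM human PAD4 (SUMO tag cleaved), 2 mM CaCl2, 3 mM BAEE, pH 7.6 MOPS buffer, 25 °C for 2 h following a 30-min compound preincubation.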

`COc1cc(C(=O)N2[C@H]3CC[C@@H]2[C@H](N)C3)cc2nc(-c3cc4ccc([C@@H](C)NC(=O)c5ccccc5F)nc4n3CC3CC3)c(C)n12` [Example 15, ~{N}-[(1~{R})-1-[2-[7-[(1~{R}, 2~{R},4~{S})-2-amino-7-azabicyclo [2.2.1]heptane-7-carbonyl]-5-methoxy-3-methylimidazo [1,2-a]pyridin-2-yl]-1-(cyclopropylmethyl)pyrrolo[2,3-b]pyridin-6-yl]ethyl]-2-fluorobenzamide] and `COc1cc(C(=O)N2[C@H]3CC[C@@H]2[C@H](N)C3)cc2nc(-c3cc4ccc([C@@H](C)NC(=O)c5ccccc5C(F)(F)F)nc4n3CC3CC3)c(C)n12` [Example 10, ~{N}-[(1~{R})-1-[2-[7-[(1~{R},2~{R},4~{S})-2-amino-7-azabicyclo [2.2.1]heptane-7-carbonyl]-5-methoxy-3-methylimidazo [1,2-a]pyridin-2-yl]-1-(cyclopropylmethyl)pyrrolo[2,3-b]pyridin-6-yl]ethyl]-2-(trifluoromethyl) benzamide] are within 0.2 log units of each other in pIC50: 6.53 for the first, 6.59 for the second.

Compared with `COc1cc(C(=O)N2[C@H]3CC[C@@H]2[C@H](N)C3)cc2nc(-c3cc4ccc(N5C[C@H](C)OCS5(=O)=O)nc4n3CC3CC3)c(C)n12` [Example 441, [(1~{R},2~{R},4~{S})-2-amino-7-azabicyclo [2.2.1]heptan-7-yl]-[2-[1-(cyclopropylmethyl)-6-[(6~{S})-6-methyl-3,3-dioxo-1,3,4-oxathiazinan-4-yl]pyrrolo[2,3-b]pyridin-2-yl]-5-methoxy-3-methylimidazo[1,2-a]pyridin-7-yl]methanone], `CC[C@](C)(O)c1ccc2cc(-c3nc4cc(C(=O)N5[C@H]6CC[C@@H]5[C@H](N)C6)cc(OC)n4c3C)n(CC3CC3)c2n1` [Example 565, [(1~{R},2~{R},4~{S})-2-amino-7-azabicyclo [2.2.1]heptan-7-yl]-[2-[1-(cyclopropylmethyl)-6-[(2~{S})-2-hydroxybutan-2-yl]pyrrolo[2,3-b]pyridin-2-yl]-5-methoxy-3-methylimidazo[1,2-a]pyridin-7-yl]methanone] is 0.34 log units lower in pIC50: 7.14 for the first, 6.80 for the second. The first is the more potent here.

`COc1cc(C(=O)N2[C@H]3CC[C@@H]2[C@H](N)[C@H](O)C3)cc2nc(-c3cc4ccc(N(C(F)F)S(C)(=O)=O)nc4n3CC3CC3)c(C)n12` [Example 311, ~{N}-[2-[7-[(1~{R}, 2~{S},3~{R},5~{S})-2-amino-3-hydroxy-8-azabicyclo[3.2.1]octane-8-carbonyl]-5-methoxy-3-methylimidazo [1,2-a]pyridin-2-yl]-1-(cyclopropylmethyl)pyrrolo [2,3-b]pyridin-6-yl]-~{N}-(difluoromethyl) methanesulfonamide] and `COc1cc(C(=O)N2C[C@H]3C[C@H](O)[C@@H]2[C@@H]3N)cc2nc(-c3cc4ccc(N(C(F)F)S(C)(=O)=O)nc4n3CC3CC3)c(C)n12` [Example 378, N-[2-[7-[(1S,4R,6S,7R)-7-amino-6-hydroxy-2-azabicyclo[2.2.1]heptane-2-carbonyl]-5-methoxy-3-methyl-imidazo [1,2-a]pyridin-2-yl]-1-(cyclopropylmethyl)pyrrolo [2,3-b]pyridin-6-yl]-N-(difluoromethyl) methanesulfonamide] are within 0.2 log units of each other in pIC50: 6.42 for the first, 6.47 for the second.

Going from `COc1cc(C(=O)N2[C@H]3CC[C@@H]2[C@H](N)C3)cc2nc(-c3cc4ccc([C@@H](C)NC(=O)C5CCC5)nc4n3CC3CC3)c(C)n12` [Example 101] to `COc1cc(C(=O)N2[C@H]3CC[C@@H]2[C@H](N)C3)cc2nc(-c3cc4ccc([C@@H](C)NC(=O)[C@@H]5CC5(F)F)nc4n3CC3CC3)c(C)n12` [Example 130, (1~{S})-~{N}-[(1~{R})-1-[2-[7-[(1~{R},2~{R},4~{S})-2-amino-7-azabicyclo [2.2.1]heptane-7-carbonyl]-5-methoxy-3-methylimidazo [1,2-a]pyridin-2-yl]-1-(cyclopropylmethyl)pyrrolo [2,3-b]pyridin-6-yl]ethyl]-2,2-difluorocyclopropane-1-carboxamide], the pIC50 falls from 7.65 to 7.33 (0.32 log units).

Going from `CNC(=O)[C@@H](C)Oc1ccc2cc(-c3nc4cc(C(=O)N5CCC[C@@H](N)C5)cc(OC)n4c3C)n(CC3CC3)c2n1` [Example 618] to `COc1cc(C(=O)N2CCC[C@@H](N)C2)cc2nc(-c3cc4ccc(N(C(F)F)S(C)(=O)=O)nc4n3CC3CC3)c(C)n12` [Example 388, ~{N}-[2-[7-[(3~{R})-3-aminopiperidine-1-carbonyl]-5-methoxy-3-methylimidazo [1,2-a]pyridin-2-yl]-1-(cyclopropylmethyl)pyrrolo [2,3-b]pyridin-6-yl]-~{N}-(difluoromethyl) methanesulfonamide], the pIC50 rises from 6.40 to 7.02 (0.62 log units). The second is the more potent here.

First: COc1cc(C(=O)N2[C@H]3CC[C@@H]2[C@H](N)C3)cc2nc(-c3cc4ccc([C@@H](C)NC(=O)c5c(F)cccc5F)nc4n3CC3CC3)c(C)n12 [Example 16, ~{N}-[(1~{R})-1-[2-[7-[(1~{R},2~{R},4~{S})-2-amino-7-azabicyclo [2.2.1]heptane-7-carbonyl]-5-methoxy-3-methylimidazo [1,2-a]pyridin-2-yl]-1-(cyclopropylmethyl)pyrrolo[2,3-b]pyridin-6-yl]ethyl]-2,6-difluorobenzamide]
Second: COc1cc(C(=O)N2[C@H]3CC[C@@H]2[C@H](N)C3)cc2nc(-c3cc4ccc([C@@H](C)NC(=O)c5cnc(C6CC6)o5)nc4n3CC3CC3)c(C)n12 [Example 79, ~{N}-[(1~{R})-1-[2-[7-[(1~{R},2~{R},4~{S})-2-amino-7-azabicyclo[2.2.1]heptane-7-carbonyl]-5-methoxy-3-methylimidazo [1,2-a]pyridin-2-yl]-1-(cyclopropylmethyl)pyrrolo [2,3-b]pyridin-6-yl]ethyl]-2-cyclopropyl-1,3-oxazole-5-carboxamide]
The pIC50 of the first is 0.31 log units lower: 6.94 for the first, 7.25 for the second.

Compared with `COc1cc(C(=O)N2CCC[C@@H](N)C2)cc2nc(-c3cc4ccc(N(C(F)F)S(C)(=O)=O)nc4n3CC3CC3)c(CC(C)C)n12` [Example 430, ~{N}-[2-[7-[(3~{R})-3-aminopiperidine-1-carbonyl]-5-methoxy-3-(2-methylpropyl)imidazo [1,2-a]pyridin-2-yl]-1-(cyclopropylmethyl)pyrrolo [2,3-b]pyridin-6-yl]-~{N}-(difluoromethyl) methanesulfonamide], `COc1cc(C(=O)N2C[C@H](N)CC[C@@H]2C)cc2nc(-c3cc4ccc(N(C(F)F)S(C)(=O)=O)nc4n3CC3CC3)c(C)n12` [Example 412, ~{N}-[2-[7-[(2~{S},5~{R})-5-amino-2-methylpiperidine-1-carbonyl]-5-methoxy-3-methylimidazo [1,2-a]pyridin-2-yl]-1-(cyclopropylmethyl)pyrrolo-[2,3b]pyridin-6-yl]-~{N}-(difluoromethyl) methanesulfonamide] is 0.78 log units higher in pIC50: 6.03 for the first, 6.81 for the second.

First: COc1cc(C(=O)N2[C@H]3CC[C@@H]2[C@H](N)C3)cc2nc(-c3cc4ccc(N[C@H](C)C(F)(F)F)nc4n3CC3CC3)c(C)n12 [Example 449]
Second: COC(=O)N(C)c1ccc2cc(-c3nc4cc(C(=O)N5[C@H]6CC[C@@H]5[C@H](N)C6)cc(OC)n4c3C)n(CC3CC3)c2n1 [Example 465, methyl~{N}-[2-[7-[(1~{R},2~{R},4~{S})-2-amino-7-azabicyclo[2.2.1]heptane-7-carbonyl]-5-methoxy-3-methylimidazo [1,2-a]pyridin-2-yl]-1-(cyclopropylmethyl)pyrrolo [2,3-b]pyridin-6-yl]-~{N}-methylcarbamate]
The pIC50 of the first is 1.89 log units lower: 5.18 for the first, 7.07 for the second.

Going from `COc1cc(C(=O)N2[C@H]3CC[C@@H]2[C@H](N)C3)cc2nc(-c3cc4ccc([C@@H](C)NC(=O)CCC(=O)NS(=O)(=O)c5ccccc5)nc4n3CC3CC3)c(C)n12` [Example 156, ~{N}-[(1~{R})-1-[2-[7-[(1~{R},2~{R},4~{S})-2-amino-7-azabicyclo[2.2.1]heptane-7-carbonyl]-5-methoxy-3-methylimidazo [1,2-a]pyridin-2-yl]-1-(cyclopropylmethyl)pyrrolo [2,3-b]pyridin-6-yl]ethyl]-~{N}′-(benzenesulfonyl) butanediamide] to `COc1cc(C(=O)N2[C@H]3CC[C@@H]2[C@H](N)C3)cc2nc(-c3cc4ccc([C@@H](C)NC(=O)CC(C)(C)OC)nc4n3CC3CC3)c(C)n12` [Example 39, ~{N}-[(1~{R})-1-[2-[7-[(1~{R},2~{R},4~{S})-2-amino-7-azabicyclo[2.2.1]heptane-7-carbonyl]-5-methoxy-3-methylimidazo[1,2-a]pyridin-2-yl]-1-(cyclopropylmethyl)pyrrolo[2,3-b]pyridin-6-yl]ethyl]-3-methoxy-3-methylbutanamide], the pIC50 falls from 7.69 to 7.06 (0.63 log units).

`COc1cc(C(=O)N2C[C@H](N)CC[C@@H]2C)cc2nc(-c3cc4ccc(C5CC5)nc4n3CC3CC3)c(C)n12` [Example 612, [(2~{S},5~{R})-5-amino-2-methylpiperidin-1-yl]-[2-[6-cyclopropyl-1-(cyclopropylmethyl)pyrrolo [2,3-b]pyridin-2-yl]-5-methoxy-3-methylimidazo[1,2-a]pyridin-7-yl]methanone] and `CCc1ccc2cc(-c3nc4cc(C(=O)N5CCC[C@@H](N)C5)cc(OC)n4c3N)n(CC3CC3)c2n1` [Example 553, [3-amino-2-[1-(cyclopropylmethyl)-6-ethylpyrrolo[2,3-b]pyridin-2-yl]-5-methoxyimidazo [1,2-a]pyridin-7-yl]-[(3~{R})-3-aminopiperidin-1-yl]methanone] are within 0.2 log units of each other in pIC50: 6.13 for the first, 6.12 for the second.

For `COc1cc(C(=O)N2[C@H]3CC[C@@H]2[C@H](N)C3)cc2nc(-c3cc4ccc([C@@H](C)NC(=O)N[C@H](C)c5cccnc5)nc4n3CC3CC3)c(C3CC3)n12` [Example 218, 1-[(1~{R})-1-[2-[7-[(1~{R},2~{R},4~{S})-2-amino-7-azabicyclo[2.2.1]heptane-7-carbonyl]-3-cyclopropyl-5-methoxyimidazo [1,2-a]pyridin-2-yl]-1-(cyclopropylmethyl)pyrrolo [2,3-b]pyridin-6-yl]ethyl]-3-[(1~{R})-1-pyridin-3-ylethyl]urea], the pIC50 was 7.26.
